Structures are written as SMILES.

What is called IC50 is the concentration needed to halve the response being measured.

In the first assay the target is T1, IKKε (Homo sapiens, UniProt Q14164).
T1 construct: His-tag (in-house Sf9 preparation) or GST-tag (purchased Invitrogen preparation); these are alternatives, not both on one protein; host or cells: Sf9 cells
T1 sequence (Q14164 1-716): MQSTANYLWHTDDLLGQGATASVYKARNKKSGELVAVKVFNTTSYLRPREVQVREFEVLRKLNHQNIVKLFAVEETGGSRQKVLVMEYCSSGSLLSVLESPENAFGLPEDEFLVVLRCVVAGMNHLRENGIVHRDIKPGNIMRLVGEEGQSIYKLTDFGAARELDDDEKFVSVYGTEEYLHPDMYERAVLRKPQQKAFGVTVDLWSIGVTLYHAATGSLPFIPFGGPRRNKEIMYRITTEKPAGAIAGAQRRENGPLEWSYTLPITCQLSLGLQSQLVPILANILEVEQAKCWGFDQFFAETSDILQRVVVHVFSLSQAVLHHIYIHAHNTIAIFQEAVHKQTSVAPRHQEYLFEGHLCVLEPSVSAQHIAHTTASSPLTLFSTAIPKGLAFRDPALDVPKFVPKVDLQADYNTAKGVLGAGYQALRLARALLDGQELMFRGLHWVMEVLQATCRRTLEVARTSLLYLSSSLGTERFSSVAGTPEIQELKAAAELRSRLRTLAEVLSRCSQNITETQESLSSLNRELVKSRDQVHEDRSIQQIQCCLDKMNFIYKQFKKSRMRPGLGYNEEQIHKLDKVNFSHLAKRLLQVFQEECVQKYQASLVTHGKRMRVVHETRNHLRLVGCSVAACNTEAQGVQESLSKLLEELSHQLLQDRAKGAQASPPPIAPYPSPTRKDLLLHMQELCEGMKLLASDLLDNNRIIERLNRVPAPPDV
Briefly: In-vitro IKKε kinase assay (radiolabelled ATP, filterplate). Format: biochemical. The settings on record: "sensitized" assay; read-out: IC50, inhibition of the kinase activity of IKKε. The method, then:
IKKε enzyme was produced as a His-tag fusion in Sf9 cells or purchased as a GST-tag fusion (Invitrogen, Carlsbad, Calif.). TBK1 enzyme was produced as a His-tag fusion in Sf9 cells. Kinase reactions were carried out in reaction buffer using myelin basic protein (Millipore, Ballerica, Mass.), casein or dephosphorylated casein (Sigma, St. Louis, Mo.) as substrate at an ATP concentration equal to twice the Km,ATP value for each enzyme, corresponding to 32 μM ATP for IKKε and 60 μM ATP for TBK1. Radiolabelled [γ^33]ATP (PerkinElmer, Waltham, Mass.) in the amount of […] (IKKe, “normal”) or 0.7 μCi (IKKε, “sensitized”) or 1.25 μCi (TBK1) was added to each assay. Final enzyme concentrations were 0.1 or 0.015 μg/ml (IKKε) and 0.1 or 0.02 μg/ml (TBK1) for the “normal” and “sensitized” assay, respectively, and “sensitized” assays were conducted using only dephosphorylated casein as substrate. Test compounds (or DMSO solvent as a control) were added prior to initiation of the reactions. Reactions were terminated after 30-45 minutes by adding 3% phosphoric acid. Terminated reactions were transferred to P-81 cellulose phosphate filterplates (Whatman, Inc., Piscataway, N.J.) and washed with 1% phosphoric acid on a vacuum apparatus. After air drying, scintillant (PerkinElmer, Waltham, Mass.) was added and the plates were read on a PerkinElmer TopCount NXT instrument. Counts were normalized to DMSO controls after background subtraction.
`CN(Cc1ccc(Nc2nccc(-c3ccc(OC4CCOCC4)c(C#N)c3)n2)cn1)C(=O)C1(N)CC1` [Example Compound 196, 1-Amino-N-{[5-({4-[3-cyano-4-(tetrahydro-2H-pyran-4-yloxy)phenyl]pyrimidin-2-yl}amino)pyridin-2-yl]methyl}-N-methylcyclopropanecarboxamide]: the IC50 was less than 5 nM.
Turning to `CN(Cc1ccc(Nc2nccc(-c3ccc(OC4CCOCC4)c(C#N)c3)n2)cn1)C(=O)C1(O)CC1` [Example Compound 197, N-{[5-({4-[3-Cyano-4-(tetrahydro-2H-pyran-4-yloxy)phenyl]pyrimidin-2-yl}amino)pyridin-2-yl]methyl}-1-hydroxy-N-methylcyclopropanecarboxamide], the IC50 was less than 5 nM.
Consider `C[C@@H](O)C(=O)N(C)Cc1ccc(Nc2nccc(-c3ccc(OC4CCOCC4)c(C#N)c3)n2)cn1` [Example Compound 198, (2R)-N-{[5-({4-[3-Cyano-4-(tetrahydro-2H-pyran-4-yloxy)phenyl]pyrimidin-2-yl}amino)pyridin-2-yl]methyl}-2-hydroxy-N-methylpropanamide], for which the IC50 is less than 5 nM.
Take `N#Cc1cc(-c2ccnc(Nc3ccc(-n4ccnc4)nc3)n2)ccc1OC1CCOCC1` [Example Compound 200, 5-(2-{[6-(1H-Imidazol-1-yl)pyridin-3-yl]amino}pyrimidin-4-yl)-2-(tetrahydro-2H-pyran-4-yloxy)benzonitrile]: the IC50 is less than 5 nM.
With `Cn1cc(-c2cc(Nc3nccc(-c4ccc(O[C@@H]5CCN(C(=O)CO)C5)c(C#N)c4)n3)ccn2)cn1` [Example Compound 204, 2-{[(3R)-1-(Hydroxyacetyl)pyrrolidin-3-yl]oxy}-5-(2-{[2-(1-methyl-1H-pyrazol-4-yl)pyridin-4-yl]amino}pyrimidin-4-yl)benzonitrile], the IC50 was less than 5 nM.
For `CC(=O)N(C)Cc1ccc(Nc2nccc(-c3ccc(OC4CCOCC4)c(C#N)c3)n2)cn1` [Example Compound 208, N-{[5-({4-[3-Cyano-4-(tetrahydro-2H-pyran-4-yloxy)phenyl]pyrimidin-2-yl}amino)pyridin-2-yl]methyl}-N-methylacetamide], the IC50 is less than 5 nM.
`CC(c1ccc(Nc2nccc(-c3ccc(OC4CCOCC4)c(C#N)c3)n2)cn1)N1CC(O)C1` (centres unmarked) [Example Compound 214, 5-[2-({6-[1-(3-Hydroxyazetidin-1-yl)ethyl]pyridin-3-yl}amino)pyrimidin-4-yl]-2-(tetrahydro-2H-pyran-4-yloxy)benzonitrile]: the IC50 is less than 5 nM.
Turning to `N#Cc1cc(-c2ccnc(Nc3ccnc(CN4CC(O)C4)c3)n2)ccc1OC1CCOCC1` [Example Compound 218, 5-[2-({2-[(3-Hydroxyazetidin-1-yl)methyl]pyridin-4-yl}amino)pyrimidin-4-yl]-2-(tetrahydro-2H-pyran-4-yloxy)benzonitrile], the IC50 was less than 5 nM.
Regarding `N#Cc1cc(-c2ccnc(Nc3ccnc(CN4CCC(F)(F)C4)c3)n2)ccc1OC1CCOCC1` [Example Compound 220, 5-[2-({2-[(3,3-Difluoropyrrolidin-1-yl)methyl]pyridin-4-yl}amino)pyrimidin-4-yl]-2-(tetrahydro-2H-pyran-4-yloxy)benzonitrile], the half-inhibitory concentration (IC50) was less than 5 nM.
With `Cc1ccc(Nc2nccc(-c3ccc(OC4CCN(C(=O)CO)CC4)c(C#N)c3)n2)cn1` [Example Compound 221, 2-{[1-(Hydroxyacetyl)piperidin-4-yl]oxy}-5-{2-[(6-methylpyridin-3-yl)amino]pyrimidin-4-yl}benzonitrile], the IC50 was less than 5 nM.
With `COc1cc(Nc2nccc(-c3ccc(OC4CCN(C(=O)CO)CC4)c(C#N)c3)n2)ccn1` [Example Compound 222, 2-{[1-(Hydroxyacetyl)piperidin-4-yl]oxy}-5-{2-[(2-methoxypyridin-4-yl)amino]pyrimidin-4-yl}benzonitrile], the IC50 is less than 5 nM.
With `Cc1cc(Nc2nccc(-c3ccc(O[C@@H]4CCN(C(=O)CO)C4)c(C#N)c3)n2)ccn1` [Example Compound 223, 2-{[(3R)-1-(Hydroxyacetyl)pyrrolidin-3-yl]oxy}-5-{2-[(2-methylpyridin-4-yl)amino]pyrimidin-4-yl}benzonitrile], the IC50 is less than 5 nM.
Turning to `N#Cc1cc(-c2ccnc(Nc3ccnc(N4CC(O)C4)c3)n2)ccc1OCC1CC1` [Example Compound 241, 2-(Cyclopropylmethoxy)-5-(2-{[2-(3-hydroxyazetidin-1-yl)pyridin-4-yl]amino}pyrimidin-4-yl)benzonitrile], the IC50 was less than 5 nM.
In the case of `COCCNc1cc(Nc2nccc(-c3ccc(OCC4CC4)c(C#N)c3)n2)ccn1` [Example Compound 245, 2-(Cyclopropylmethoxy)-5-[2-({2-[(2-methoxyethyl)amino]pyridin-4-yl}amino)pyrimidin-4-yl]benzonitrile], the IC50 was less than 5 nM.
On to `COC1CN(c2cc(Nc3nccc(-c4ccc(OCC5CC5)c(C#N)c4)n3)ccn2)C1` [Example Compound 248, 2-(Cyclopropylmethoxy)-5-(2-{[2-(3-methoxyazetidin-1-yl)pyridin-4-yl]amino}pyrimidin-4-yl)benzonitrile], for which the half-maximal inhibitory concentration (IC50) is less than 5 nM.

The subject of a further assay is IKKε-mediated phosphorylation of IRF3. Briefly: ELISA for in-situ phosphorylation of IRF3 (phospho-Ser396) in HEK293T cells cotransfected with IRF3 and IKKε. In kind it is cell-based. The settings on record: Homo sapiens, HEK-293T, 20 h, HEK293T cells, 20 hours; range given from about 1 μM to about 250 nM; read-out: IC50, in-situ IKKε-mediated phosphorylation of IRF3. The method, then:
HEK293T cells were cotransfected in a 10-cm dish with IRF3 and IKKε expression plasmids using Lipofectamine 2000 (Invitrogen, Carlsbad, Calif.). The following day, cells were replated at 20,000 per well in 96-well plates and treated with test compounds (compounds according to Formulae I and/or II) for 20 hours. Cell lysates were prepared and analyzed using an ELISA for phospho-Ser396 (anti-IRF3 capture antibody, Santa Cruz Biotechnology, Inc., Santa Cruz, Calif.; anti-p-Ser396 IRF3 detection antibody, Cell Signaling, Danvers, Mass.). pIRF3 levels in compound treated cells were normalized to DMSO treated cells (no compound). Cell viability was assayed in a parallel set of plates to monitor cytotoxic effects of the test compounds (CellTiter-Glo, Promega, Inc., Madison, Wis.). TBK1 activity was tested by Western blotting using a phospho-specific IRF7 antibody. Similar to above, HEK293T cells were transfected with IRF7 and TBK1 expression plasmids. Cells were seeded in 12-well plates at 150,000 per well and treated overnight with test compounds. Protein lysates were prepared and processed for Western blotting followed by detection using a phosphor-Ser477/Ser479 IRF7 antibody (BD Biosciences, San Jose, Calif.)
A general note: An ELISA detects its analyte on a solid surface through an enzyme-linked reagent.
`COCCNCc1ccc(Nc2nccc(-c3ccc(OC4CCOCC4)c(C#N)c3)n2)cn1` [Example Compound 50, 5-{2-[(6-{[(2-Methoxyethyl)amino]methyl}pyridin-3-yl)amino]pyrimidin-4-yl}-2-(tetrahydro-2H-pyran-4-yloxy)benzonitrile]: the IC50 lay within 250 to 1000 nM.
Take `CN1CCN(c2ccc(Nc3nccc(-c4ccc(OC5CCOCC5)c(C#N)c4)n3)nn2)CC1` [Example Compound 85, 5-(2-{[6-(4-Methylpiperazin-1-yl)pyridazin-3-yl]amino}pyrimidin-4-yl)-2-(tetrahydro-2H-pyran-4-yloxy)benzonitrile]: the IC50 lay in the range of 250 to 1000 nM.

The same assay, now with this note: Homo sapiens, HEK-293T, 20 h, HEK293T cells, 20 hours; read-out: IC50, in-situ IKKε-mediated phosphorylation of IRF3.
Turning to `N#Cc1cc(-c2ccnc(Nc3ccc(N4CCOCC4)nc3)n2)ccc1OC1CCOCC1` [Example Compound 6, 5-(2-{[6-(Morpholin-4-yl)pyridin-3-yl]amino}pyrimidin-4-yl)-2-(tetrahydro-2H-pyran-4-yloxy)benzonitrile], the IC50 fell in the range of 100 to 250 nM.
With `COC1CN(C(=O)c2ccc(Nc3nccc(-c4ccc(OC5CCOCC5)c(C#N)c4)n3)cn2)C1` [Example Compound 31, 5-[2-({6-[(3-Methoxyazetidin-1-yl)carbonyl]pyridin-3-yl}amino)pyrimidin-4-yl]-2-(tetrahydro-2H-pyran-4-yloxy)benzonitrile], the IC50 lay within 100 to 250 nM.
As to `Cc1nccn1-c1ccc(Nc2nccc(-c3ccc(OC4CCOCC4)c(C#N)c3)n2)cn1` [Example Compound 73, 5-(2-{[6-(2-Methyl-1H-imidazol-1-yl)pyridin-3-yl]amino}pyrimidin-4-yl)-2-(tetrahydro-2H-pyran-4-yloxy)benzonitrile], the IC50 is less than 100 nM.

The record behind these values is patent US20140288044A1, “COMPOSITIONS AND THERAPEUTIC USES OF IKK-RELATED KINASE EPSILON AND TANKBINDING KINASE 1 INHIBITORS” (Alzheimer's Institute of America, Inc., priority 2011, published 2014).
